Like-named read-outs stand apart in the source and are kept apart here.
Columns and labels:
[1] = biological target: T1, AChE from Electrophorus electricus (Electrophorus electricus, UniProt O42275); test: biochemical
T1 construct: purchased Sigma (St. Louis, MO, USA)
Method: AChEI activity was measured using Ellman’s method. AChE hydrolyzes the substrate ACTI into acetate and thiocholine. In a neutral and alkaline medium; thiocholine reacts with DTNB to give yellow colored 2-nitro-5-thiobenzoate, which can be detected spectrophotometrically at 405 nm. Briefly, in a 96-well plate, 25 µL of 15 mM ACTI, 125 µL of 3 mM DTNB in buffer B (50 mM Tris HCl, pH = 8, 0.1 M NaCl, 0.02 M MgCl2·6H2O), 50 µL of buffer A (50 mM Tris-HCl, PH 8, 0.1% BSA) and 25 µL of tested sample (dissolved in 25% DMSO) were mixed, and the absorbance was measured using a microplate reader (Biotek, Winooski, VT, USA) at 405 nm every 16 s ten times. Then, 25 µL of AChE (0.25 U/mL in buffer A) was added and the absorbance was measured ten times every 16 s. A solution of 25% DMSO was used as a negative control. Absorbance was plotted against time and enzyme activity was calculated from the slope of the line so obtained and expressed as a percentage compared to an assay using a buffer without any inhibitor. Fractions were tested at 400 µg/mL. To avoid any increase in absorbance due to the color of the compounds or spontaneous hydrolysis of the substrate, the absorbance before addition of the enzyme was subtracted from the absorbance after adding the enzyme.
(§1) IC50 values of isolated compounds in AChEI and scavenging of hydroxyl radical assays were calculated using Probit Analysis (SPSS Version 16.0 for Windows, SPSS Inc., Chicago, IL, USA) for five different concentrations in three independent experiments. Cell viability was expressed as a percentage of MTT reduction, assuming that the viability of cells treated with 1% DMSO as a negative control was 100%. Figures were built in Microsoft Excel 2010. All values are the mean ± SD of three independent experiments. Data were analyzed for statistical significance using one-way ANOVA, followed by Dunnet’s test as a post-hoc test with GraphPad Prism 5.0 software for Windows (Inc., San Diego, CA, USA).

[2] = Scavenging of hydroxyl radical, 2-deoxyribose degradation assay; settings: for % Inhibition of deoxyribose degradation, Site-Specific / % Inhibition of deoxyribose degradation, Non Site-Specific: 300 µM; for % Inhibition of deoxyribose degradation, Non Site-Specific: 25 min, pH 7.4
Method: The inhibitory effect of bioactive compounds on deoxyribose degradation was determined by measuring the competition between deoxyribose and bioactive compounds for the hydroxyl radicals (^.OH) generated from the Fe^3+/ascorbate/EDTA/H2O2 system (referred to non-site-specific assay; the major activity measured is ^.OH scavenging) or an Fe^3+/ascorbate/H2O2 system (referred to as a site-specific assay; major activity measured is metal chelation). Both assays depend on the formation of a highly reactive hydroxyl radical, OH, by the interaction of iron ions with H2O2 through Fenton’s reaction. […] This assay was performed as previously described. Different concentrations of tested compounds were dissolved in 400 µL phosphate buffer (0.2 M, pH 7.4). Then, 50 µL of deoxyribose (60 mM), 50 µL of Na2EDTA (2 mM), 50 µL of FeCl3 (3.2 mM), 50 µL of H2O2 (60 mM) and 50 µL of ascorbic acid (2 mM) were added, and the total volume of the reaction mixture was adjusted to 1 mL with buffer. After water-bath incubation at 50 °C for 25 min, the reaction was terminated by 250 µL of trichloroacetic acid (10%, w/w). […] For site-specific hydroxyl-radical-scavenging activity, the reaction mixture was similar to the above method, except that EDTA was replaced by an equivalent volume of buffer.
as §1, with “Figures were built in Microsoft Excel 2010.” left out

[3] = system: intracellular ROS in Neuro-2A cells; test: Scavenging of intracellular reactive oxygen species (Bes-H2O2-AC, DFF fluorescence); format: cell-based, Mouse; settings: for decrease of DFF fluorescence intensity (intracellular ROS): at 50 and 100 µM, H2O2 600 µM 30 min; for Intracellular ROS Scavenging: summary Table 4; on Intracellular ROS Scavenging: key: +: Weak activity; ++: Strong activity
Method: (§2) Neuro-2A cell line was maintained in Eagle’s Minimum Essential medium supplemented with 10% fetal bovine serum, 1% of 100× antibiotic—antimitotic agents (containing penicillin and streptomycin) in a humid atmosphere of 5% (v/v) CO2 and 95% (v/v) air at 37 °C. Neuro-2A cells were plated in 96-well cell culture plates at a density of 3 × 10^4 cells/well for H2O2 and intracellular ROS assays and 2.5 × 10^3 cells/well for the Aβ25-35-assay.
This assay was performed as previously described with some modifications. Briefly, Neuro-2A cells were seeded in 96-well Clear Fluorescence Black Plate (number 655090, Greiner Bio-one, Tokyo, Japan). Cells were treated with three different concentrations (25, 50, 100 µM) of the samples. After 2 h incubation, cells were subjected to oxidative stress using 600 µM of H2O2 for 30 min. The nucleus was stained by Hoechst 33342 (Dojindo, Kumamoto, Japan), and the amount of difluorofluorescein (DFF) released from the reaction of H2O2 and BES-H2O2-Ac was taken as an indication of the amount of intracellular H2O2 and ROS. Images of each well were acquired using an IN Cell Analyzer 1000 (GE Healthcare, Buckinghamshire, UK) using 360-nm (Hoechst 33342) and 480-nm (BES-H2O2-Ac) excitation filters and monitored through 460-nm and 535-nm emission filters, respectively. Developer software was used to analyze the images of Hoechst 33342 and BES-H2O2-Ac staining, and the resulting data were then applied to Spotfire Decision Site Client 8.2 software for visualizing the results.

[4] = system: neuro-2A cells; test: Protection against Aβ25-35-induced neurotoxicity (MTT); format: cell-based, Mouse; settings: for neuroprotection against Aβ25-35 (in words): at the highest concentration (100 µM); for Protection against Aβ25-35: summary Table 4; on Protection against Aβ25-35: key: +: Weak activity; ++: Strong activity
Method: as §2
(§3) Cell viability was determined by MTT reduction assay. Briefly, after treatment with isolated compounds, the media was replaced by fresh one after washing the cells with 100 µL PBS and 20 µL of MTT (5 mg/mL) was added to each well. After 4 h incubation at 37 °C, the state of cells was checked under microscope to confirm either cytotoxicity in H2O2 and Aβ25-35 wells or protection in positive controls and isolated compounds ones. The supernatants were aspirated carefully, and 150 µL of DMSO was added to each well to dissolve the dark blue formazan crystals. The absorbance was measured using a microplate reader at 570 nm.
Similarly, the concentration of Aβ25-35 that decreased cell viability to about 50% was determined. […] So, the cells were incubated with different concentrations of the isolated compounds (6.25, 12.5, 25, 50 and 100 µM) and EGCG as a positive control for 3 h followed by Aβ25-35 treatment for 72 h.

[5] = system: neuro-2A cells; test: Protection against H2O2-induced neurotoxicity (MTT); format: cell-based, Mouse; settings: for Protection against H2O2: summary Table 4; for neuroprotection against H2O2-induced neurotoxicity (in words): 6.25-100 µM, H2O2 150 µM
Method: as §2, §3
H2O2 interacts with metals in the medium, producing highly cytotoxic hydroxyl radicals that induce neurotoxicity. So, active compounds are those that can scavenge free radicals and increase the cell viability. This assay was performed as previously described with slight modifications. Briefly, the concentration of H2O2 that decreased cell viability to about 50% was determined as follows: cells were cultured in a 96-well plate and after 24 h were further incubated with different concentrations of H2O2 (50, 100, 150, 200 µM) freshly prepared from 30% stock solution. After 24 h, cell viability was determined using the MTT reduction method. H2O2 at a concentration of 150 µM had the desired cytotoxicity and was used for the next step.

[6] = summary Table 4, read-out: AchEI IC50
[7] = Fe3+/ascorbate/EDTA/H2O2 system, read-out: IC50 hydroxyl radical scavenging, Non Site-Specific
[8] = Fe3+/ascorbate/H2O2 system without EDTA, read-out: IC50 hydroxyl radical scavenging, Site-Specific
[9] = summary Table 4 (values of the non site-specific assay), read-out: Hydroxyl Radical Scavenging/IC50
[10] = Ellman's method, read-out: IC50 in the AChEI assay

T1 sequence (O42275 24-633): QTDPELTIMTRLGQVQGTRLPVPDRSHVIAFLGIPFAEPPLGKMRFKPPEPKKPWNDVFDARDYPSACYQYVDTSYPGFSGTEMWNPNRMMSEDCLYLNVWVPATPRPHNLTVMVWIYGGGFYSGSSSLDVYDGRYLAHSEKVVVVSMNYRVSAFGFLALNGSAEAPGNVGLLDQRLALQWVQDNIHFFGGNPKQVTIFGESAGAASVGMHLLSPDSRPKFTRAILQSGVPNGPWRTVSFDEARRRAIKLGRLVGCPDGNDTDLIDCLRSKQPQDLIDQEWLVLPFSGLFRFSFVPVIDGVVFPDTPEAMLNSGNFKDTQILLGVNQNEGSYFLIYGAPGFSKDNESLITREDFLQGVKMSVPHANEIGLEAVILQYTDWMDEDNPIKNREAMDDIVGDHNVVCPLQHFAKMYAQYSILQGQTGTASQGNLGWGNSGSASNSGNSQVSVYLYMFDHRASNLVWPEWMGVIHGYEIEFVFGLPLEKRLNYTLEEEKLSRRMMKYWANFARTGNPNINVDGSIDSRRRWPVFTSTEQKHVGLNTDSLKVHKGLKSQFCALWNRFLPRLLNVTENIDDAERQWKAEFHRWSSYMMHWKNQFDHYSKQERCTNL

Molecule | IC50 in the AChEI assay ([1]; Ellman's method) | IC50 [1, 6] | IC50 [2, 7] | IC50 [2, 8] | decrease of DFF fluorescence intensity (intracellular ROS) [3] | Intracellular ROS Scavenging [3] | Protection against H2O2 [5] | other results
CCC(CCC(C)C1CCC2C3CC=C4CC(OC5OC(CO)C(O)C(O)C5O)CCC4(C)C3CCC12C)C(C)C (stereo not drawn) [β-Sitosterol-3-O-glucoside (5), β-sitosterol-3-O-glucoside] | inactive | > 500 µM |  |  |  |  |  | 
Oc1cc(O)c2c(c1)OC(c1ccc(O)c(O)c1)C(O)C2 (centres unmarked) [Catechin (positive control), Catechin, reference compound] |  |  | 473 ± 8.6 µM | 534 ± 19.2 µM |  |  |  | 
O=Cc1ccc(CO)o1 [5-(Hydroxymethyl)-2-furaldehyde (7), 5-(hydroxymethyl)-2-furaldehyde] | inactive | > 500 µM |  |  |  |  |  | % Inhibition of deoxyribose degradation, Site-Specific [2]: -; % Inhibition of deoxyribose degradation, Non Site-Specific [2]: 4 ± 0.3%
O=c1c(O)c(-c2ccc(O)c(O)c2)oc2cc(O)cc(O)c12 [Quercetin (12), quercetin] |  |  | 672 ± 10.6 µM | 837 ± 21.6 µM | significantly decrease the fluorescence intensity | ++ | ++ | neuroprotection against Aβ25-35 (in words) [4]: significant neuroprotection (p < 0.05); Protection against Aβ25-35 [4]: +; IC50 [2, 9]: 672 ± 10.6 µM
OO [H2O2, reference compound] |  |  |  |  |  |  |  | cytotoxicity of H2O2 ([5]; 150 µM H2O2, 24 h, MTT): 48.2% ± 1.8%
CC1(C)CCC2(C)CCC3(C)C4CC=C5C(CCC(O)C5(C)C)C4(C)CCC3(C)C2C1 (stereo not drawn) [α-Glutinol (1), α-glutinol] | inactive | > 500 µM |  |  |  |  |  | neuroprotection against H2O2-induced neurotoxicity (in words) [5]: did not show significant neuroprotection
Aβ25-35: amyloid β peptide fragment used to induce neurotoxicity (GSNKGAIIGLM; Amyloid-beta protein 42; UniProt P05067 696-706, looked up, fragment) [reference compound] |  |  |  |  |  |  |  | cytotoxicity of Aβ25-35 ([4]; 25 µM, 72 h incubation): 55% ± 4.6%
Nc1ncnc2c1ncn2[C@@H]1O[C@H](CO)[C@@H](O)[C@H]1O [Adenosine (15), adenosine] | inactive | > 500 µM |  |  |  |  |  | 
O=C(/C=C/c1ccc(O)c(O)c1)O[C@@H]1C[C@](O)(C(=O)O)C[C@@H](O)[C@H]1O [Chlorogenic acid (11), chlorogenic acid] | inactive | > 500 µM |  |  | significantly decrease the fluorescence intensity | ++ | ++ | 
O=c1cc(-c2ccc(O)c(O)c2)oc2cc(O)cc(O)c12 [Luteolin (9), luteolin] |  | > 500 µM | 753 ± 11.1 µM | 980 ± 15.8 µM | significantly decrease the fluorescence intensity | ++ | ++ | IC50 [1, 10]: > 500 µM; inhibition at 250 µM ([1]; at 250 µM): 30%; neuroprotection against Aβ25-35 (in words) [4]: significant neuroprotection (p < 0.05); Protection against Aβ25-35 [4]: +; IC50 [2, 9]: 753 ± 11.1 µM
CC1(C)CC[C@]2(C)CC[C@]3(C)C(=CC[C@@H]4[C@@]5(C)CC[C@H](O)C(C)(C)[C@@H]5CC[C@]43C)[C@@H]2C1 [β-Amyrin (2), β-amyrin] | inactive | > 500 µM |  |  |  |  |  | neuroprotection against H2O2-induced neurotoxicity (in words) [5]: did not show significant neuroprotection; % Inhibition of deoxyribose degradation, Site-Specific [2]: -; % Inhibition of deoxyribose degradation, Non Site-Specific [2]: -
COC(=O)C1(O)CC(O)C(O)C(OC(=O)C=Cc2ccc(O)c(O)c2)C1 (centres unmarked) [Methyl chlorogenate (10), methyl chlorogenate] |  | > 500 µM | 840 ± 12.4 µM | 920 ± 10.9 µM | significantly decrease the fluorescence intensity | ++ | ++ | IC50 [1, 10]: > 500 µM; inhibition at 500 µM ([1]; at 500 µM): 10%; IC50 [2, 9]: 840 ± 12.4 µM
